Measurements reported in patent US20090209556A1, “SOLUBLE GUANYLATE CYCLASE ACTIVATORS” (priority 2007, published 2009).

Target: T1, Human recombinant sGC enzyme (Homo sapiens, UniProt Q02108+Q02153)
T1 construct: purchased Axxora, LLC (San Diego, Calif.)
T1 sequence (Q02153 1-619): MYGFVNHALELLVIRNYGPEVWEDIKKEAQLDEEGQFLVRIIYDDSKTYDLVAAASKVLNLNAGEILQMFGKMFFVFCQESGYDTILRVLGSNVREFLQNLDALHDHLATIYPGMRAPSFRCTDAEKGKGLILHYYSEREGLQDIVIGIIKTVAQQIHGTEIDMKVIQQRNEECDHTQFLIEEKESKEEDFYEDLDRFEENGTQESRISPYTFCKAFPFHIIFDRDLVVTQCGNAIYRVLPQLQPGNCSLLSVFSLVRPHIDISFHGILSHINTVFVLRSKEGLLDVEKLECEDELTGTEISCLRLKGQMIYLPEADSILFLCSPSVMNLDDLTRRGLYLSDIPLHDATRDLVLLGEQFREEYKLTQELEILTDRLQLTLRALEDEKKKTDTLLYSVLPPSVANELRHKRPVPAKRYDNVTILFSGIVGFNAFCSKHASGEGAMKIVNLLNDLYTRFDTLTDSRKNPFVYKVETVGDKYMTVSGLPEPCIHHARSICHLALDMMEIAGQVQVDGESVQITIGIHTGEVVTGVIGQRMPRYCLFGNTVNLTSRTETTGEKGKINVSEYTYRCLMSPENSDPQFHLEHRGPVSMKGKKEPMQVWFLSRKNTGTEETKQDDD
T1 sequence (Q02108 1-690): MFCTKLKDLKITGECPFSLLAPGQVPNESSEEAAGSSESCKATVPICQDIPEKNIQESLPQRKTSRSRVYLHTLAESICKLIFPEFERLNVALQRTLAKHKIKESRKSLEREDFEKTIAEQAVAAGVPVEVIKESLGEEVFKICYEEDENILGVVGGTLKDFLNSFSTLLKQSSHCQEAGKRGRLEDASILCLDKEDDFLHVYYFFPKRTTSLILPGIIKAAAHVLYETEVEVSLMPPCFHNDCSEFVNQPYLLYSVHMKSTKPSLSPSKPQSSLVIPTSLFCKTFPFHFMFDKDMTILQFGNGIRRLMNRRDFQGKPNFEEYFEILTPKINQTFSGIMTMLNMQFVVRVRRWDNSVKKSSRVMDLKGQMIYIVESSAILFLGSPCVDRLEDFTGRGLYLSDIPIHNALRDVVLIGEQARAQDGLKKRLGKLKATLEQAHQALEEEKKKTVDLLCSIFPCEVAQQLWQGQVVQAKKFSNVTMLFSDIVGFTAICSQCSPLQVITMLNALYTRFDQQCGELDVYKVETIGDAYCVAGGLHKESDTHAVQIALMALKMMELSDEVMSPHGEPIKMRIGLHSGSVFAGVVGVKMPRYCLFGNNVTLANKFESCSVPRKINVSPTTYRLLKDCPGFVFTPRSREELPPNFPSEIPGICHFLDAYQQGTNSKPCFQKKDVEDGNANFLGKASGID
Assay: Measurement of soluble guanylyl cyclase activation (enzyme-based), PCASA cell-free enzymatic assay, cGMP by HTRF
Type: biochemical
Conditions: purified sGC 0.1 ng, substrate GTP, 1 hr at 37° C.
Protocol: Measurement of Soluble Guanylyl Cyclase ([…]) Activation (Enzyme-Based)
Activities of test compounds against purified sGC were evaluated in PCASA assay which is a cell-free enzymatic assay.
Human recombinant sGC enzyme with greater than 95% purity was obtained from Axxora, LLC (San Diego, Calif.). Compounds were incubated with 0.1 ng of sGC enzyme in presence of its substrate GTP for 1 hr at 37° C. At the end of the incubation period, the reaction was stopped and the amount of cGMP generated was measured by an HTRF-based assay (CisBio, 62GN2PEC), which detects the displacement of a fluorophore-labeled cGMP from its specific antibody.
Inflection point, maximum % of activation, and EC50 were derived based on the plot of compound concentration vs % activation.

Question: `O=C(O)c1cnn(-c2cccc(-c3cc(Cl)ccc3OCc3ccc([C@H]4CC[C@H](C(F)(F)F)CC4)cc3)n2)c1C(F)(F)F` [Example 9] was tested. Which EC50 did it give?
Answer: 1.7 nM
